Key:
Type in all cases: cell-based, human
MOLT-4 = test: NCI60 antitumor screening; details: 10 μM one-dose
SK-MEL-2 = test: NCI60 antitumor screening; details: 10 μM one-dose
BT-549 = test: NCI60 antitumor screening; details: 10 μM one-dose
NCI-H23 = test: NCI60 antitumor screening; details: 10 μM one-dose
UACC-257 = test: NCI60 antitumor screening; details: 10 μM one-dose
UACC-62 = test: NCI60 antitumor screening; details: 10 μM one-dose
HCC-2998 = test: NCI60 antitumor screening; details: 10 μM one-dose
HCT-15 = test: NCI60 antitumor screening; details: 10 μM one-dose
HOP-62 = test: NCI60 antitumor screening; details: 10 μM one-dose
U251 = test: NCI60 antitumor screening; details: 10 μM one-dose
RXF 393 = test: NCI60 antitumor screening; details: 10 μM one-dose
A549/ATCC = test: NCI60 antitumor screening; details: 10 μM one-dose
HCT-116 = test: NCI60 antitumor screening; details: 10 μM one-dose
HOP-92 = test: NCI60 antitumor screening; details: 10 μM one-dose
OVCAR-3 = test: NCI60 antitumor screening; details: 10 μM one-dose
MCF7 = test: NCI60 antitumor screening; details: 10 μM one-dose
OVCAR-4 = test: NCI60 antitumor screening; details: 10 μM one-dose
SF-539 = test: NCI60 antitumor screening; details: 10 μM one-dose
SW-620 = test: NCI60 antitumor screening; details: 10 μM one-dose
K-562 = test: NCI60 antitumor screening; details: 10 μM one-dose
T-47D = test: NCI60 antitumor screening; details: 10 μM one-dose
MDA-MB-231/ATCC = test: NCI60 antitumor screening; details: 10 μM one-dose
NCI-H226 = test: NCI60 antitumor screening; details: 10 μM one-dose
OVCAR-5 = test: NCI60 antitumor screening; details: 10 μM one-dose
UO-31 = test: NCI60 antitumor screening; details: 10 μM one-dose
A498 = test: NCI60 antitumor screening; details: 10 μM one-dose
MDA-MB-468 = test: NCI60 antitumor screening; details: 10 μM one-dose
SR = test: NCI60 antitumor screening; details: 10 μM one-dose
M14 = test: NCI60 antitumor screening; details: 10 μM one-dose
LOX IMVI = test: NCI60 antitumor screening; details: 10 μM one-dose
NCI/ADR-RES = test: NCI60 antitumor screening; details: 10 μM one-dose
SK-MEL-5 = test: NCI60 antitumor screening; details: 10 μM one-dose
NCI-H522 = test: NCI60 antitumor screening; details: 10 μM one-dose
SK-OV-3 = test: NCI60 antitumor screening; details: 10 μM one-dose
IGROV1 = test: NCI60 antitumor screening; details: 10 μM one-dose
OVCAR-8 = test: NCI60 antitumor screening; details: 10 μM one-dose
HL-60(TB) = test: NCI60 antitumor screening; details: 10 μM one-dose
RPMI-8226 = test: NCI60 antitumor screening; details: 10 μM one-dose
HT29 = test: NCI60 antitumor screening; details: 10 μM one-dose
COLO 205 = test: NCI60 antitumor screening; details: 10 μM one-dose
SN12C = test: NCI60 antitumor screening; details: 10 μM one-dose
EKVX = test: NCI60 antitumor screening; details: 10 μM one-dose
ACHN = test: NCI60 antitumor screening; details: 10 μM one-dose
PC-3 = test: NCI60 antitumor screening; details: 10 μM one-dose
DU-145 = test: NCI60 antitumor screening; details: 10 μM one-dose
KM12 = test: NCI60 antitumor screening; details: 10 μM one-dose
SF-268 = test: NCI60 antitumor screening; details: 10 μM one-dose
CAKI-1 = test: NCI60 antitumor screening; details: 10 μM one-dose
MDA-MB-435 = test: NCI60 antitumor screening; details: 10 μM one-dose
SF-295 = test: NCI60 antitumor screening; details: 10 μM one-dose
CCRF-CEM = test: NCI60 antitumor screening; details: 10 μM one-dose
SNB-75 = test: NCI60 antitumor screening; details: 10 μM one-dose
MALME-3M = test: NCI60 antitumor screening; details: 10 μM one-dose
SNB-19 = test: NCI60 antitumor screening; details: 10 μM one-dose
NCI60 cell lines panel = test: NCI60 antitumor screening, full panel; details: 10 μM one-dose, mean over NCI60
Outline: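 Percent growth inhibition (GI%) was recorded for each of the NCI60 lines, spanning leukaemia, lung, colon, CNS, melanoma, ovarian, renal, prostate and breast cancers, after exposure to compounds at one concentration, 10 μM.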

HS 578T = test: NCI60 antitumor screening; details: 10 μM one-dose
786–0 = test: NCI60 antitumor screening; details: 10 μM one-dose
TK-10 = test: NCI60 antitumor screening; details: 10 μM one-dose
NCI-H460 = test: NCI60 antitumor screening; details: 10 μM one-dose
SK-MEL-28 = test: NCI60 antitumor screening; details: 10 μM one-dose
NCI-H322M = test: NCI60 antitumor screening; details: 10 μM one-dose

In the case of N#Cc1c(-c2ccc(F)cc2)nc(SCc2ccc(F)cc2)nc1N1CCOCC1 [4b, 2-((4-Fluorobenzyl)thio)-4-(4-fluorophenyl)-6-morpholinopyrimidine-5-carbonitrile], the GI% (MOLT-4) is reported as “— (GI% < 10)”, the GI% (SK-MEL-2) is reported as 21.29% and the GI% (BT-549) is reported as 35.72%. It also gave a GI% (NCI-H23) of 28.19%, a GI% (UACC-257) of 22.89% and a GI% (UACC-62) of 30.66%. For the same compound, the GI% (HCC-2998) was 12.64%, the GI% (HCT-15) was 20.05% and the GI% (HOP-62; Table 1) was 75.65%. The GI% (U251) was 52.85%, the GI% (RXF 393) was 58.43% and the GI% (RXF 393; Table 1) was “— (GI value > 70%)”. It also gave a GI% (A549/ATCC) of 31.03%, a GI% (HCT-116) of 33.96% and a GI% (HOP-92) of 65.67%. For the same compound, the GI% (OVCAR-3) was 24.80%, the GI% (MCF7) was 36.26% and the GI% (OVCAR-4) was 39.53%. For the same compound, the GI% (OVCAR-4; Table 1) was “— (GI value > 70%)”, the GI% (SF-539) was 50.95% and the GI% (SF-539; Table 1) was “— (GI value > 70%)”. For the same compound, the GI% (SW-620) was 14.48%, the GI% (K-562) was 16.20% and the GI% (K-562; Table 1) was “— (GI value > 70%)”. It also gave a GI% (T-47D) of 26.75%, a GI% (MDA-MB-231/ATCC) of 49.52% and a GI% (NCI-H226) of 51.64%. For the same compound, the GI% (NCI-H226; Table 1) was “— (GI value > 70%)”, the GI% (OVCAR-5) was 16.89% and the GI% (UO-31) was 13.97%. For the same compound, the GI% (A498) was 28.08%, the GI% (MDA-MB-468) was 37.89% and the GI% (SR; Table 1) was “— (GI value > 70%)”. For the same compound, the GI% (M14) was “— (GI% < 10)”, the GI% (LOX IMVI) was 23.57% and the GI% (NCI/ADR-RES) was 36.47%. The GI% (SK-MEL-5) was 25.68%, the GI% (NCI-H522) was 45.02% and the GI% (SK-OV-3) was 60.37%. For the same compound, the GI% (IGROV1) was “— (GI% < 10)”, the GI% (OVCAR-8) was 45.16% and the GI% (HL-60(TB)) was 15.01%. The GI% (RPMI-8226) was “— (GI% < 10)”, the GI% (HT29) was “— (GI% < 10)” and the GI% (COLO 205) was “— (GI% < 10)”. For the same compound, the GI% (SN12C) was 27.12%, the GI% (EKVX) was 39.92% and the GI% (ACHN) was 53.35%. It also gave a GI% (PC-3) of 28.37%, a GI% (DU-145) of 22.16% and a GI% (KM12) of 12.78%. For the same compound, the GI% (SF-268) was 56.58%, the GI% (CAKI-1) was 69.32% and the GI% (MDA-MB-435) was “— (GI% < 10)”. It also gave a GI% (SF-295) of 63.10%, a GI% (CCRF-CEM) of 12.89% and a GI% (SNB-75; Table 1) of 82.51%. For the same compound, the GI% (MALME-3M) was 41.38%, the GI% (SNB-19) was 56.32% and the “Mean GI%” value (NCI60 cell lines panel) was 34.42%. It also gave a GI% (HS 578T; Table 1) of 74.34%, a GI% (786–0; Table 1) of 75.34% and a GI% (TK-10) of 22.42%. For the same compound, the GI% (NCI-H460) was 26.13%, the GI% (SK-MEL-28) was 14.16% and the GI% (NCI-H322M) was 21.55%.
In the case of N#Cc1c(Cl)nc(SCc2ccc(F)cc2)nc1-c1ccc(F)cc1 [3b, 4-Chloro-2-((4-fluorobenzyl)thio)-6-(4-fluorophenyl) pyrimidine-5-carbonitrile], the GI% (MOLT-4) is reported as 19.35%, the GI% (SK-MEL-2) is reported as “— (GI% < 10)” and the GI% (BT-549) is reported as “— (GI% < 10)”. The GI% (NCI-H23) was “— (GI% < 10)”, the GI% (UACC-257) was “— (GI% < 10)” and the GI% (UACC-62) was 13.95%. The GI% (HCC-2998) was “— (GI% < 10)”, the GI% (HCT-15) was 13.00% and the GI% (HOP-62) was “— (GI% < 10)”. The GI% (U251) was “— (GI% < 10)”, the GI% (RXF 393) was 10.29% and the GI% (A549/ATCC) was “— (GI% < 10)”. The GI% (HCT-116) was 18.51%, the GI% (HOP-92) was 25.21% and the GI% (OVCAR-3) was “— (GI% < 10)”. For the same compound, the GI% (MCF7) was 17.40%, the GI% (OVCAR-4) was “— (GI% < 10)” and the GI% (SF-539) was “— (GI% < 10)”. For the same compound, the GI% (SW-620) was “— (GI% < 10)”, the GI% (K-562) was 30.20% and the GI% (T-47D) was 33.18%. The GI% (MDA-MB-231/ATCC) was “— (GI% < 10)”, the GI% (NCI-H226) was 28.68% and the GI% (OVCAR-5) was “— (GI% < 10)”. For the same compound, the GI% (UO-31) was 12.89%, the GI% (A498) was “— (GI% < 10)” and the GI% (MDA-MB-468) was “— (GI% < 10)”. For the same compound, the GI% (SR) was “— (GI% < 10)”, the GI% (M14) was “— (GI% < 10)” and the GI% (LOX IMVI) was “— (GI% < 10)”. The GI% (NCI/ADR-RES) was 13.45%, the GI% (SK-MEL-5) was 13.82% and the GI% (NCI-H522) was 25.38%. The GI% (SK-OV-3) was “— (GI% < 10)”, the GI% (IGROV1) was “— (GI% < 10)” and the GI% (OVCAR-8) was 10.81%. The GI% (HL-60(TB)) was 49.83%, the GI% (RPMI-8226) was “— (GI% < 10)” and the GI% (HT29) was 13.44%. The GI% (COLO 205) was “— (GI% < 10)”, the GI% (SN12C) was 19.06% and the GI% (EKVX) was 10.91%. The GI% (ACHN) was “— (GI% < 10)”, the GI% (PC-3) was “— (GI% < 10)” and the GI% (DU-145) was “— (GI% < 10)”. The GI% (KM12) was “— (GI% < 10)”, the GI% (SF-268) was “— (GI% < 10)” and the GI% (CAKI-1) was “— (GI% < 10)”. For the same compound, the GI% (MDA-MB-435) was “— (GI% < 10)”, the GI% (SF-295) was 10.01% and the GI% (CCRF-CEM) was 13.30%. For the same compound, the GI% (SNB-75) was “— (GI% < 10)”, the GI% (MALME-3M) was “— (GI% < 10)” and the GI% (SNB-19) was “— (GI% < 10)”. For the same compound, the “Mean GI%” value (NCI60 cell lines panel) was “— (GI% < 10)”, the GI% (HS 578T) was “— (GI% < 10)” and the GI% (786–0) was “— (GI% < 10)”. The GI% (TK-10) was “— (GI% < 10)”, the GI% (NCI-H460) was “— (GI% < 10)” and the GI% (SK-MEL-28) was “— (GI% < 10)”. For the same compound, the GI% (NCI-H322M) was “— (GI% < 10)”.

Reference: article PMC10620772, “Design, synthesis, and biological evaluation of new pyrimidine-5-carbonitrile derivatives as novel anti-cancer, dual EGFR^WT/COX-2 inhibitors with docking studies” (RSC Advances, 2023)
